From PubChem BioAssay (NCI)
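How tested: cells in 96-well plates exposed to compound for 48 hours at five concentrations. Definition used: TGI = concentration required for complete inhibition of growth.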

What was measured:
Experiment in all cases: inhibition of tumour cell growth, NCI panel, 48 h
HOP-62 NSCLC = test system: HOP-62 NSCLC
A498 renal = test system: A498 renal
HOP-18 NSCLC = test system: HOP-18 NSCLC
SF-268 CNS = test system: SF-268 CNS
KM20L2 colon = test system: KM20L2 colon
HOP-92 NSCLC = test system: HOP-92 NSCLC
MOLT-4 leukemia = test system: MOLT-4 leukemia
MALME-3M melanoma = test system: MALME-3M melanoma
RXF 393 renal = test system: RXF 393 renal
RPMI-8226 leukemia = test system: RPMI-8226 leukemia
IGROV1 ovarian = test system: IGROV1 ovarian
SR leukemia = test system: SR leukemia
SNB-75 CNS = test system: SNB-75 CNS
SK-MEL-28 melanoma = test system: SK-MEL-28 melanoma
CCRF-CEM leukemia = test system: CCRF-CEM leukemia
DMS 273 small cell lung = test system: DMS 273 small cell lung
UACC-62 melanoma = test system: UACC-62 melanoma
M14 melanoma = test system: M14 melanoma
SNB-19 CNS = test system: SNB-19 CNS
NCI-H23 lung = test system: NCI-H23 lung
A549 NSCLC = test system: A549 NSCLC
SW-620 colon = test system: SW-620 colon
OVCAR-8 ovarian = test system: OVCAR-8 ovarian
HCT-15 colon = test system: HCT-15 colon
U251 CNS = test system: U251 CNS
786-0 renal = test system: 786-0 renal
SF-539 CNS = test system: SF-539 CNS
COLO 205 colon = test system: COLO 205 colon
HT29 colon = test system: HT29 colon
HCC-2998 colon = test system: HCC-2998 colon
HCT-116 colon = test system: HCT-116 colon
SK-MEL-5 melanoma = test system: SK-MEL-5 melanoma
UACC-257 melanoma = test system: UACC-257 melanoma
HL-60(TB) leukemia = test system: HL-60(TB) leukemia
NCI-H522 lung = test system: NCI-H522 lung
EKVX NSCLC = test system: EKVX NSCLC
SK-OV-3 ovarian = test system: SK-OV-3 ovarian
UO-31 renal = test system: UO-31 renal
DMS 114 small cell lung = test system: DMS 114 small cell lung
NCI-H226 lung = test system: NCI-H226 lung
OVCAR-4 ovarian = test system: OVCAR-4 ovarian
M19-MEL melanoma = test system: M19-MEL melanoma
ACHN renal = test system: ACHN renal
K-562 leukemia = test system: K-562 leukemia
SN12C renal = test system: SN12C renal
DLD-1 colon = test system: DLD-1 colon
LXFL 529 NSCLC = test system: LXFL 529 NSCLC
SNB-78 CNS = test system: SNB-78 CNS
SF-295 CNS = test system: SF-295 CNS
NCI-H460 lung = test system: NCI-H460 lung
OVCAR-5 ovarian = test system: OVCAR-5 ovarian
KM12 colon = test system: KM12 colon
TK-10 renal = test system: TK-10 renal
LOX IMVI melanoma = test system: LOX IMVI melanoma
CAKI-1 renal = test system: CAKI-1 renal
OVCAR-3 ovarian = test system: OVCAR-3 ovarian
SK-MEL-2 melanoma = test system: SK-MEL-2 melanoma

## CC(=O)c1ccc(N2C(=O)C3c4[nH]c5ccccc5c4C4CCC(C(C)(C)C)CC4C3C2=O)cc1 (configuration not stated)
HOP-62 NSCLC
  TGI: 38.5 µM
A498 renal
  TGI: 71.3 µM
HOP-18 NSCLC
  TGI: > 100 µM
SF-268 CNS
  TGI: 36.7 µM
KM20L2 colon
  TGI: 36.4 µM
HOP-92 NSCLC
  TGI: 47.1 µM
MOLT-4 leukemia
  TGI: > 100 µM
MALME-3M melanoma
  TGI: 34.4 µM
RXF 393 renal
  TGI: 32.7 µM
RPMI-8226 leukemia
  TGI: 54 µM
IGROV1 ovarian
  TGI: > 100 µM
SR leukemia
  TGI: 70.9 µM
SNB-75 CNS
  TGI: 94.7 µM
SK-MEL-28 melanoma
  TGI: 83.2 µM
CCRF-CEM leukemia
  TGI: > 100 µM
DMS 273 small cell lung
  TGI: 33.3 µM
UACC-62 melanoma
  TGI: 59.3 µM
M14 melanoma
  TGI: 67.8 µM
SNB-19 CNS
  TGI: > 100 µM
NCI-H23 lung
  TGI: 45.3 µM
A549 NSCLC
  TGI: 50.9 µM
SW-620 colon
  TGI: 54.3 µM
OVCAR-8 ovarian
  TGI: 54.7 µM
HCT-15 colon
  TGI: 92.8 µM
U251 CNS
  TGI: 39.8 µM
786-0 renal
  TGI: 34.3 µM
SF-539 CNS
  TGI: 46.1 µM
COLO 205 colon
  TGI: 29.1 µM
HT29 colon
  TGI: 32.6 µM
HCC-2998 colon
  TGI: 35.8 µM
HCT-116 colon
  TGI: 30.7 µM
SK-MEL-5 melanoma
  TGI: 58.8 µM
UACC-257 melanoma
  TGI: > 100 µM
HL-60(TB) leukemia
  TGI: 76.9 µM
NCI-H522 lung
  TGI: 61.9 µM
EKVX NSCLC
  TGI: 94.1 µM
SK-OV-3 ovarian
  TGI: > 100 µM
UO-31 renal
  TGI: > 100 µM
DMS 114 small cell lung
  TGI: 59.8 µM
NCI-H226 lung
  TGI: 47.6 µM
OVCAR-4 ovarian
  TGI: 94.8 µM
M19-MEL melanoma
  TGI: 42.1 µM
ACHN renal
  TGI: 87.9 µM
K-562 leukemia
  TGI: > 100 µM
SN12C renal
  TGI: 32.8 µM
DLD-1 colon
  TGI: > 100 µM
LXFL 529 NSCLC
  TGI: > 100 µM
SNB-78 CNS
  TGI: 74.9 µM
SF-295 CNS
  TGI: 88.9 µM

## CC(=O)Nc1ccc(-c2nnc(SCC(=O)Nc3cccc(C)c3)o2)cc1
HOP-62 NSCLC
  TGI: 73.2 µM
HOP-18 NSCLC
  TGI: 29.7 µM
SF-268 CNS
  TGI: > 100 µM
NCI-H460 lung
  TGI: 28.6 µM
KM20L2 colon
  TGI: 22 µM
HOP-92 NSCLC
  TGI: 26.2 µM
OVCAR-5 ovarian
  TGI: 26.7 µM
MOLT-4 leukemia
  TGI: > 100 µM
MALME-3M melanoma
  TGI: 27.2 µM
RXF 393 renal
  TGI: 25.9 µM
RPMI-8226 leukemia
  TGI: 67 µM
IGROV1 ovarian
  TGI: 24.7 µM
SR leukemia
  TGI: > 100 µM
SNB-75 CNS
  TGI: 45.8 µM
SK-MEL-28 melanoma
  TGI: 28.6 µM
CCRF-CEM leukemia
  TGI: > 100 µM
DMS 273 small cell lung
  TGI: 23 µM
UACC-62 melanoma
  TGI: 20.9 µM
M14 melanoma
  TGI: 25.6 µM
KM12 colon
  TGI: 22.6 µM
NCI-H23 lung
  TGI: 20.4 µM
A549 NSCLC
  TGI: 68.6 µM
SW-620 colon
  TGI: 25.4 µM
OVCAR-8 ovarian
  TGI: 38.9 µM
TK-10 renal
  TGI: 29.2 µM
LOX IMVI melanoma
  TGI: 15.6 µM
HCT-15 colon
  TGI: 21.6 µM
U251 CNS
  TGI: 26.3 µM
786-0 renal
  TGI: 26.4 µM
SF-539 CNS
  TGI: 27.8 µM
COLO 205 colon
  TGI: 28 µM
HT29 colon
  TGI: 25.4 µM
CAKI-1 renal
  TGI: 30.4 µM
HCT-116 colon
  TGI: 24.1 µM
SK-MEL-5 melanoma
  TGI: 23.1 µM
UACC-257 melanoma
  TGI: 24.9 µM
HL-60(TB) leukemia
  TGI: > 100 µM
NCI-H522 lung
  TGI: 16.7 µM
SK-OV-3 ovarian
  TGI: 81.5 µM
UO-31 renal
  TGI: 26.3 µM
DMS 114 small cell lung
  TGI: 6.94 µM
NCI-H226 lung
  TGI: 30.8 µM
OVCAR-4 ovarian
  TGI: 29.8 µM
M19-MEL melanoma
  TGI: 24.9 µM
ACHN renal
  TGI: 22.5 µM
K-562 leukemia
  TGI: > 100 µM
SN12C renal
  TGI: 28.5 µM
OVCAR-3 ovarian
  TGI: 24.2 µM
SK-MEL-2 melanoma
  TGI: 28.6 µM
DLD-1 colon
  TGI: 23.1 µM
LXFL 529 NSCLC
  TGI: 22.8 µM
SNB-78 CNS
  TGI: 31.1 µM
SF-295 CNS
  TGI: 22.9 µM
